Laboratory results: ChEMBL document CHEMBL1201862, “PubChem BioAssay data set” (2004)
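Grown in 96-well plates, cells were treated for 48 hours with each compound at five concentrations. Insufficient inhibition: endpoint recorded as highest concentration tested. At the GI50, growth is halved.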 Active and inactive are the calls of the source. Rule as the data show it: active = GI50 up to about 1.1 µM and inactive = higher.

Experiments:
Experiment in all cases: NCI anticancer screen, dose series, 48 h
786-0 = test system: 786-0
A498 = test system: A498
A549 = test system: A549
ACHN = test system: ACHN
BT-549 = test system: BT-549
CAKI-1 = test system: CAKI-1
CCRF-CEM = test system: CCRF-CEM
DU-145 = test system: DU-145
EKVX = test system: EKVX
HCC 2998 = test system: HCC 2998
HCT-116 = test system: HCT-116
HCT-15 = test system: HCT-15
HOP-62 = test system: HOP-62
HOP-92 = test system: HOP-92
HT-29 = test system: HT-29
Hs-578T = test system: Hs-578T
IGROV-1 = test system: IGROV-1
K562 = test system: K562
KM12 = test system: KM12
LOX IMVI = test system: LOX IMVI
M14 = test system: M14
MDA-MB-231 = test system: MDA-MB-231
MDA-MB-435 = test system: MDA-MB-435
MDA-N = test system: MDA-N
MOLT-4 = test system: MOLT-4
Malme-3M = test system: Malme-3M
NCI-H226 = test system: NCI-H226
NCI-H23 = test system: NCI-H23
NCI-H460 = test system: NCI-H460
NCI-H522 = test system: NCI-H522
NCI/ADR-RES = test system: NCI/ADR-RES
OVCAR-3 = test system: OVCAR-3
OVCAR-4 = test system: OVCAR-4
OVCAR-5 = test system: OVCAR-5
OVCAR-8 = test system: OVCAR-8
PC-3 = test system: PC-3
RXF 393 = test system: RXF 393
SF-268 = test system: SF-268
SF-295 = test system: SF-295
SK-MEL-28 = test system: SK-MEL-28
SK-MEL-2 = test system: SK-MEL-2
SK-MEL-5 = test system: SK-MEL-5
SN12C = test system: SN12C
SNB-19 = test system: SNB-19
SNB-75 = test system: SNB-75
SR = test system: SR
SW-620 = test system: SW-620
T47D = test system: T47D
TK-10 = test system: TK-10
U-251 = test system: U-251
UACC-257 = test system: UACC-257
UACC-62 = test system: UACC-62
UO-31 = test system: UO-31
COLO 205 = test system: COLO 205
HL-60 = test system: HL-60
MCF7 = test system: MCF7
RPMI-8226 = test system: RPMI-8226
SF-539 = test system: SF-539
SK-OV-3 = test system: SK-OV-3

For `Nc1nc(SCCc2ccccc2)c2nc[nH]c2n1`, the GI50 (786-0) was 78.2 µM (inactive), the GI50 (A498) was 19.1 µM (inactive) and the GI50 (A549) was > 100 µM (inactive). For the same molecule, the GI50 (ACHN) was 35.7 µM (inactive), the GI50 (BT-549) was 47.3 µM (inactive) and the GI50 (CAKI-1) was 61.9 µM (inactive). The GI50 (CCRF-CEM) was 31.2 µM (inactive), the GI50 (DU-145) was 36.2 µM (inactive) and the GI50 (EKVX) was 25.2 µM (inactive). The GI50 (HCC 2998) was 25.9 µM (inactive), the GI50 (HCT-116) was 68.5 µM (inactive) and the GI50 (HCT-15) was 37.2 µM. The GI50 (HOP-62) was 50.5 µM (inactive), the GI50 (HOP-92) was 76.6 µM (inactive) and the GI50 (HT-29) was 41.1 µM (inactive). For the same molecule, the GI50 (Hs-578T) was 64 µM (inactive), the GI50 (IGROV-1) was 51.1 µM (inactive) and the GI50 (K562) was 48.1 µM (inactive). The GI50 (KM12) was > 100 µM (inactive), the GI50 (LOX IMVI) was 41.8 µM (inactive) and the GI50 (M14) was 71.3 µM (inactive). The GI50 (MDA-MB-231) was 51.1 µM (inactive), the GI50 (MDA-MB-435) was 81.7 µM (inactive) and the GI50 (MDA-N) was 55.7 µM (inactive). The GI50 (MOLT-4) was 33.6 µM (inactive), the GI50 (Malme-3M) was 64.9 µM (inactive) and the GI50 (NCI-H226) was 61.9 µM (inactive). The GI50 (NCI-H23) was 69.5 µM (inactive), the GI50 (NCI-H460) was 33.9 µM (inactive) and the GI50 (NCI-H522) was 66.2 µM (inactive). The GI50 (NCI/ADR-RES) was 51.2 µM (inactive), the GI50 (OVCAR-3) was 45.1 µM (inactive) and the GI50 (OVCAR-4) was > 100 µM (inactive). The GI50 (OVCAR-5) was 72.3 µM (inactive), the GI50 (OVCAR-8) was 95.9 µM (inactive) and the GI50 (PC-3) was 38.9 µM (inactive). The GI50 (RXF 393) was 60.4 µM (inactive), the GI50 (SF-268) was 46.6 µM (inactive) and the GI50 (SF-295) was 71.9 µM (inactive). For the same molecule, the GI50 (SK-MEL-28) was 58.9 µM (inactive), the GI50 (SK-MEL-2) was 30.7 µM (inactive) and the GI50 (SK-MEL-5) was 45.1 µM (inactive). For the same molecule, the GI50 (SN12C) was 39.4 µM (inactive), the GI50 (SNB-19) was > 100 µM (inactive) and the GI50 (SNB-75) was 33 µM (inactive). The GI50 (SR) was 36.2 µM (inactive), the GI50 (SW-620) was 76.9 µM (inactive) and the GI50 (T47D) was 40.9 µM (inactive). For the same molecule, the GI50 (TK-10) was 19.6 µM (inactive), the GI50 (U-251) was 58.5 µM (inactive) and the GI50 (UACC-257) was 23.7 µM (inactive). The GI50 (UACC-62) was 47.5 µM (inactive) and the GI50 (UO-31) was 60.7 µM (inactive).
`O=C(NCCCN(CCCCN(CCCNC(=O)C(F)(F)F)Cc1ccccc1)Cc1ccccc1)C(F)(F)F` was tested, and the GI50 (786-0) was 12.6 µM (inactive), the GI50 (A498) was 20.6 µM (inactive) and the GI50 (A549) was 24.2 µM (inactive). For the same molecule, the GI50 (ACHN) was 16.5 µM (inactive), the GI50 (BT-549) was 14.9 µM (inactive) and the GI50 (CAKI-1) was 13.6 µM (inactive). For the same molecule, the GI50 (CCRF-CEM) was 16.2 µM (inactive), the GI50 (COLO 205) was 10.7 µM (inactive) and the GI50 (DU-145) was 19.7 µM (inactive). For the same molecule, the GI50 (EKVX) was 12.6 µM (inactive), the GI50 (HCC 2998) was 4.24 µM (inactive) and the GI50 (HCT-116) was 11.5 µM (inactive). The GI50 (HCT-15) was 12.4 µM, the GI50 (HL-60) was 12.9 µM (inactive) and the GI50 (HOP-92) was 10.5 µM (inactive). For the same molecule, the GI50 (HT-29) was 6.49 µM (inactive), the GI50 (Hs-578T) was 16.6 µM (inactive) and the GI50 (IGROV-1) was 13.4 µM (inactive). For the same molecule, the GI50 (K562) was 13.7 µM (inactive), the GI50 (KM12) was 13.2 µM (inactive) and the GI50 (LOX IMVI) was 8.43 µM (inactive). The GI50 (M14) was 3.49 µM (inactive), the GI50 (MCF7) was 12.3 µM (inactive) and the GI50 (MDA-MB-231) was 17.5 µM (inactive). For the same molecule, the GI50 (MDA-MB-435) was 18.3 µM (inactive), the GI50 (MDA-N) was 15.7 µM (inactive) and the GI50 (MOLT-4) was 14.7 µM (inactive). For the same molecule, the GI50 (Malme-3M) was 15.1 µM (inactive), the GI50 (NCI-H226) was 17.2 µM (inactive) and the GI50 (NCI-H23) was 15.5 µM (inactive). The GI50 (NCI-H460) was 10.4 µM (inactive), the GI50 (NCI-H522) was 9.51 µM (inactive) and the GI50 (NCI/ADR-RES) was 14.7 µM (inactive). For the same molecule, the GI50 (OVCAR-4) was 16.8 µM (inactive), the GI50 (OVCAR-5) was 19.9 µM (inactive) and the GI50 (OVCAR-8) was 14 µM (inactive). The GI50 (RPMI-8226) was 16 µM (inactive), the GI50 (RXF 393) was 14.8 µM (inactive) and the GI50 (SF-268) was 12.5 µM (inactive). For the same molecule, the GI50 (SF-295) was 16.5 µM (inactive), the GI50 (SF-539) was 13.5 µM (inactive) and the GI50 (SK-MEL-28) was 12.6 µM (inactive). For the same molecule, the GI50 (SK-MEL-5) was 3.39 µM (inactive), the GI50 (SK-OV-3) was 20.1 µM (inactive) and the GI50 (SN12C) was 15.4 µM (inactive). For the same molecule, the GI50 (SNB-19) was 13.7 µM (inactive), the GI50 (SNB-75) was 12.6 µM (inactive) and the GI50 (SW-620) was 16.5 µM (inactive). The GI50 (T47D) was 17.7 µM (inactive), the GI50 (TK-10) was 23.3 µM (inactive) and the GI50 (U-251) was > 10 µM (inactive). For the same molecule, the GI50 (UACC-257) was 5.07 µM (inactive), the GI50 (UACC-62) was 16.9 µM (inactive) and the GI50 (UO-31) was 4.63 µM (inactive).
For `Cc1ccc(S(=O)(=O)N2CCNCCN(S(=O)(=O)c3ccc(C)cc3)CCNCC2)cc1`, the GI50 (786-0) was 18.7 µM (inactive), the GI50 (A498) was 23.2 µM (inactive) and the GI50 (A549) was 34.2 µM (inactive). For the same molecule, the GI50 (ACHN) was 28.9 µM (inactive), the GI50 (BT-549) was 19.1 µM (inactive) and the GI50 (CAKI-1) was 27.6 µM (inactive). For the same molecule, the GI50 (COLO 205) was 16.4 µM (inactive), the GI50 (DU-145) was 19.5 µM (inactive) and the GI50 (EKVX) was 24 µM (inactive). For the same molecule, the GI50 (HCC 2998) was 15.7 µM (inactive), the GI50 (HCT-116) was 15 µM (inactive) and the GI50 (HCT-15) was 32.9 µM. For the same molecule, the GI50 (HL-60) was 10.2 µM (inactive), the GI50 (HOP-62) was 16.6 µM (inactive) and the GI50 (HOP-92) was 18.7 µM (inactive). The GI50 (HT-29) was 14.1 µM (inactive), the GI50 (Hs-578T) was 17.8 µM (inactive) and the GI50 (IGROV-1) was 19.7 µM (inactive). The GI50 (K562) was 14.2 µM (inactive), the GI50 (KM12) was 20.8 µM (inactive) and the GI50 (LOX IMVI) was 12.5 µM (inactive). For the same molecule, the GI50 (M14) was 18.1 µM (inactive), the GI50 (MCF7) was 27.3 µM (inactive) and the GI50 (MDA-MB-231) was 23.7 µM (inactive). The GI50 (MDA-MB-435) was 18.1 µM (inactive), the GI50 (MDA-N) was 20.2 µM (inactive) and the GI50 (Malme-3M) was 17.5 µM (inactive). The GI50 (NCI-H226) was 19.3 µM (inactive), the GI50 (NCI-H23) was 32.3 µM (inactive) and the GI50 (NCI-H460) was 14.7 µM (inactive). For the same molecule, the GI50 (NCI-H522) was 16.6 µM (inactive), the GI50 (NCI/ADR-RES) was 61.1 µM (inactive) and the GI50 (OVCAR-3) was 14.2 µM (inactive). The GI50 (OVCAR-4) was 32.2 µM (inactive), the GI50 (OVCAR-5) was 43.4 µM (inactive) and the GI50 (OVCAR-8) was 19.2 µM (inactive). For the same molecule, the GI50 (RXF 393) was 2.65 µM (inactive), the GI50 (SF-268) was 21.8 µM (inactive) and the GI50 (SF-295) was 15.8 µM (inactive). For the same molecule, the GI50 (SF-539) was 19.1 µM (inactive), the GI50 (SK-MEL-28) was 18.5 µM (inactive) and the GI50 (SK-MEL-2) was 19.8 µM (inactive). For the same molecule, the GI50 (SK-MEL-5) was 16.3 µM (inactive), the GI50 (SK-OV-3) was 20.4 µM (inactive) and the GI50 (SN12C) was 29.6 µM (inactive). The GI50 (SNB-19) was 31 µM (inactive), the GI50 (SNB-75) was 20.2 µM (inactive) and the GI50 (SR) was 16.4 µM (inactive). For the same molecule, the GI50 (SW-620) was 35.5 µM (inactive), the GI50 (T47D) was 12.3 µM (inactive) and the GI50 (TK-10) was 18.3 µM (inactive). For the same molecule, the GI50 (U-251) was 20.2 µM (inactive), the GI50 (UACC-257) was 16.4 µM (inactive) and the GI50 (UACC-62) was 18.8 µM (inactive). For the same molecule, the GI50 (UO-31) was 19.8 µM (inactive).
